Results on one compound are retold here after patent US6262095A, “Use of tricyclic derivatives of 1,4-dihydro-1,4-dioxo-1H-naphthalene, novel compounds obtained and their application in theraphy” (Laboratoire Innothera, priority 1995, dated 2001).

The subject of series [1] is capillary resistance of rats. In words: Capillary resistance of rats after oral administration (petechial index). In kind it is in vivo, rat (Wistar). The conditions noted are these: rat. On the procedure:
The increase in the capillary resistance is evaluated by the modification of the petechial index (negative pressure inducing the extravasation of the erythrocytes), measured by a method derived from the angiosterrometer of Parrot.
The studies are carried out on male Wistar rats with an average weight of 200 g (approximate age six weeks). The bottom area of the back is shorn, then the hair is pulled by means of a paste based on a derivative of thioglycolic acid and calcium hydroxide. After approximately 30 min, the skin is abundantly rinsed and dried.
On the day of the study, the rats are maintained without constraint. A low pressure of 80 mm of mercury is applied. If the petechiae (extravasation of erythrocytes) have not appeared within 15 sec, the low pressure is increased as a countermeasure, keeping the suction cap at the same place.
The minimum low pressure where petechias appear, in mm of mercury, expresses the basal capillary resistance (before any treatment). Two measurements are made for each test at different sites on of the back.
The rats are treated by the oral route. […] All the measurements are done in the blind mode.
A percentage of variation in the capillary resistances of the animals treated compared to their basal capillary resistance is calculated for each compound studied, at each treatment time and compared with the control group (excipient only) or the reference group.

The test system of series [2] is mice. In words: Single oral administration toxicity in mice. In kind it is in vivo, mouse. The settings on record: single oral administration, 1 g/kg. An excerpt:
Moreover, the compounds of the invention and their possible salts have a very low toxicity.

Series [3] relates to saphenous vein in rabbits. In words: Potentiation of the contractile response of the rabbit saphenous vein to noradrenaline. In kind it is cell-based. As to the method:
(§1) The contractile effects are measured in vitro under static conditions on vascular capacitance or resistance rings of saphenous, femoral, jugular, mesenteric, and caval veins . . . and on femoral, carotid, basilar, or mesenteric arteries, as well as the thoracic or abdominal aorta . . . in rats (Wistar, 200-250 g), rabbits (New Zealand, 2-2.5 kg), guinea pigs (Dunkin Hartley 250-300 g).
(§2) The rings are placed in a chamber for isolated organs (25 mL for capacitance vessels and 2.5 mL for resistance vessels according to Mulvany), and maintained under isometric conditions using two rigid threads inserted inside the vessel, avoiding causing damage to the endothelium. The vessels are bathed in a modified Krebs solution (in mM: NaCl=118; KCl=4.6; CaCl2 =2.5; MgSO4 =1.2; KH2 PO4 =1.17; NaHCO3 =25; glucose=11), continuously aerated using a gaseous mixture of 95% O2 and 5% Co2, at a pH=7.4, and regulated by thermostat at 37° C. The rings are adjusted to their optimal point as far as the tension-length relationship is concerned. […] The pharmacological studies are carried out after a few standardized preliminary contractile stimulations using a depolarizing solution (hyperpotassic type obtained by replacing NaCl with KCl in equimolar quantities), along with rinsings and periods of equilibration in a pure physiological solution. […]

The subject of series [4] is jugular vein of rabbits. In words: Contraction of rabbit jugular vein under depolarizing hyperpotassic conditions. The format is cell-based. The settings on record: Oryctolagus cuniculus, pH 7.4, read-out: ED50 (contraction). On the procedure:
as §1, §2

For series [5], the system named is dorsal cutaneous chamber in hamsters. In words: Dorsal cutaneous chamber in hamsters (microcirculation, histamine). In kind it is in vivo. The settings on record: hamster, 28 mg/kg i.v. bolus, after histamine 1 mg/kg i.v. As to the method: In the conscious animal, the arterial pressures are measured according to the classical method derived from Riva Rocci, by the analysis of the acoustical wave transmitted at the arterial level and transformed by a ceramic piezo transducer placed on the tail of the rat, downstream from a sleeve that is automatically inflated by a pressure generator. At the microcirculatory level, the variations in the sections of the veinules and arterioles are studied in vivo in the model of the dorsal cutaneous chamber of conscious hamsters, after a video microscopic recording (microscope Leitz Ergolux equipped with a halogen source for the illumination and its black-and-white CD video camera HPR 610) and computer analysis (software Visicap, Pack ICAP) of the images.
After anesthesia with sodium pentobarbital (60 mg/kg in i.p. administration), the back of the animal is shaved and hair is pulled so as to be able to put an observation chamber (Professor Gebhard, Heidelberg) on the back skin. The two parts of this chamber are sewn after careful removal of a certain level of skin thicknesses, which can impede the observation. A jugular catheter is placed for the i.v. administration of the products, 48 h after the operation.
The effect of the compounds on the hyperpermeability induced by inflammatory agents, such as histamine and bradykinin, is also studied after intravenous injection in a bolus in the model of the dorsal cutaneous chamber of hamsters and according to the method developed by Gimeno et al., described earlier ("A new technique using intravital videomicroscopy for macromolecular permeability measurement," 18th European Congress on Microcirculation, Rome, 1994) using videomicroscopy and image analysis by quantification of the distribution of the intra- and extravascular fluorescence of the fluorescent marker (FITC-Dextran) injected in a bolus through the jugular catheter (63 mg/kg for a volume defined at 1 mL/kg). The microscope is equipped with a fluorescence source and a combination of filters (excitation in the blue range 450-490 nm, and 515-nm stop filter).

Series [6] concerns arterial pressure of the anesthetized rat. In words: Arterial pressure of the anesthetized rat. The format is in vivo. The settings on record: i.v. bolus at least up to 28 mg/kg. As to the method: The contractile effects are also measured in vitro under dynamic flow conditions, by the pressure developed by the vascular beds that are perfused at a constant flow rate. At the mesenteric level, the selective effect on veins is studied using the model of a double simultaneous and separate infusion of the arterial and venous networks model developed by T. Warner (British J. Pharmacol., 1990, Vol. 99, pp. 427-433). The separation of the two networks is achieved by cutting the vessels and the tissues along the intestinal border. The networks are perfused at 2 mL.min^-1 with a Krebs solution (37.5° C.), which is aerated using 95% O2 and 5% CO2. In vivo, the arterial and venous pressures are measured in the anesthetized animal, under basal conditions and after circulatory arrest caused by the swelling of a balloon catheter introduced at the level of the left atrium. During the cardiac arrest, the venous tone (average circulatory filling pressure at a constant blood volume) is calculated from the venous and arterial pressures measured at equilibrium and corrected as a function of the relative differences in compliance between these two networks (Samar & Coleman, Am. J. Physiol., 1978, Vol. 234: pp. H94-100; Yamamoto et al., Am. J. Physiol., 1980, Vol. 238: pp. H823-828).

A word on the Emax: it is the size of the effect at its maximum, as opposed to the concentration needed. Regarding `O=C1c2ccccc2C(=O)c2sc(-c3ccco3)nc21` [Example n, 4,9-Dihydro-4,9-dioxo-2-(2-furyl)-naphtho[2,3-d]thiazole], in series [1], the “correlation of duration of action with plasma concentrations” value is “correlates with its measured plasma concentrations”, the “dose dependence of oral effect on capillary resistance” value is “dose dependent over a broad range of doses” and the “duration of action on capillary resistance” value is “at least 6 h”. The “Increase of capillary resistance, effects after 4 h” value in series [1] (0.1 mg/kg, 4 h, * granulometry: 0.5-0.6 mm) is reported as 45 % of the control. For the same compound, in series [1] (0.1 mg/kg, 6 h, * granulometry: 0.5-0.6 mm), the “Increase of capillary resistance, effect after 6 h” value is on record as 45 % of the control. Also, in series [2], the observed signs result is “red urine”; the “toxic effect and mortality” value is “no observable toxic effect and no mortality”. Besides, the “change of noradrenaline ED50” value in series [3] was “reduced by a factor of ten”. The Emax in series [3] (Oryctolagus cuniculus, read-out: increase of noradrenaline Emax) was determined as 30%. Besides, in series [4], the EC50 turned out to be 16 nM. Besides, in series [5], the arteriolar diameter result is “not the arteriolar diameter”, the histamine-induced vascular hyperpermeability result is listed as “reduces the vascular hyperpermeability” and the veinule diameter result is reported as “reduces the veinule diameter”. For the same compound, in series [6], the arterial pressure entry was “does not affect the arterial pressure”.
